Measured values taken from patent US11679107B2 (Eisai R&D Management Co., Ltd., priority 2018, dated 2023).
Where two headings read alike, the source gives them in different places.

Key:
[1] = tested on: NCI-H1568 cells (high MCL1); test: Cell proliferation and viability, CellTiter-Glo, 72 hours; assay type: cell-based; conditions: for GI50: geometric mean
Procedure, shortened: (§1)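 RPMI-1640/10% FBS (Panc: + insulin, FBS 15%); 11-pt half-log dose, ~10 μM-100 pM, 0.1% DMSO; 37° C, 5% CO2; ATP luminescence read; % inhibition vs T0 and vehicle, −100% cidal to 100% uninhibited growth.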

[2] = tested on: Panc 05.04 cells (SF3b K700E mutant); test: as above; assay type: cell-based; conditions: for GI50: geometric mean
Procedure, shortened: as §1

SF3b complexes = biological target: T1, SF3b complexes (Homo sapiens, UniProt O75533+Q7RTV0); test: Scintillation proximity assay (SPA) with [3H]-labelled pladienolide probe; assay type: binding; conditions: SF3B1 (WT); geometric mean; read-out: SPA-ATS GMean IC50 (nM) SF3B1 (WT)
T1 construct: endogenous in cells; host or cells: Nuclear extracts; A HeLa S3 extract preparation is described for the in vitro splicing assay
Procedure, shortened: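 SF3b complexes captured from nuclear extracts on anti-SF3B1 antibody SPA beads; test compounds pre-incubated 30 min before 2.5 nM [3H]-pladienolide probe added, then 30 min incubation. Bound probe read by scintillation; values from non-linear regression of concentration–response curves.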

[3] = tested on: Ad2 variant pre-mRNAs spliced in HeLa S3 nuclear extracts; test: In vitro splicing assay (IVS), RT-qPCR of spliced product; assay type: biochemical; conditions: for IC50: geometric mean; for Ratio Ad2.1/2.2: ratio of IVS IC50 Ad2.1 to Ad2.2
Procedure, shortened: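 Read-out is one-step TaqMan RT-qPCR of spliced Ad2 mRNA with Ftz as reference, normalized to DMSO and fit by non-linear regression. Reactions held HeLa S3 nuclear extract, 2 ng Ad2-derived pre-mRNA and test compound, with 15 min preincubation. Splicing was started with ATP-containing activation buffer and run 90 min at 30 °C.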

[4] = 72 h, NCIH1568.1, -100% = cidal, 0% = static, 100% = uninhibited growth
[5] = 72 h, PANC0504.1, -100% = cidal, 0% = static, 100% = uninhibited growth
[6] = Ad2.1 pre-mRNA substrate, read-out: qPCR-IVS-ATS GMean IC50 (nM) Ad2.1
[7] = Ad2.2 pre-mRNA substrate, read-out: qPCR-IVS-ATS GMean IC50 (nM) Ad2.2
[8] = NCI-H1568, read-out: CTGlo-ATS GMean GI50 (nM) 72 h NCIH1568.1, NCIH1568.1 cells, 72 h
[9] = NCIH1568.1 cells, 72 h, −100% cidal, 0% static, 100% maximal growth
[10] = PANC0504.1 cells, 72 h, −100% cidal, 0% static, 100% maximal growth
[11] = Panc 05.04, read-out: CTGlo-ATS GMean GI50 (nM) 72 h PANC0504.1, PANC0504.1 cells, 72 h
[12] = NCI-H1568, 72 h, read-out: CTGlo-ATS GMean GI50 (nM) 72 h NCIH1568.1, NCIH1568.1 cells, 72 h
[13] = Panc 05.04, 72 h, read-out: CTGlo-ATS GMean GI50 (nM) 72 h PANC0504.1, PANC0504.1 cells, 72 h

| Structure (SMILES) | CTGlo-ATS Mean MinResponse % 72 h NCIH1568.1 [1, 4] [%] | GI50 ([1]; NCI-H1568, 72 h, read-out: CTGlo-ATS GMean GI50 (nM) 72 h NCIH1568.1, 72 h, NCIH1568.1) [nM] | CTGlo-ATS Mean MinResponse % 72 h PANC0504.1 [2, 5] [%] | GI50 ([2]; Panc 05.04, 72 h, read-out: CTGlo-ATS GMean GI50 (nM) 72 h PANC0504.1, 72 h, PANC0504.1) [nM] | IC50 (SF3b complexes) [nM] | IC50 [3, 6] [nM] | IC50 [3, 7] [nM] | Ratio Ad2.1/2.2 [3] | GI50 [1, 8] [nM] | CTGlo-ATS Mean MinResponse % 72 h NCIH1568.1 [1, 9] [%] | CTGlo-ATS Mean MinResponse % 72 h PANC0504.1 [2, 10] [%] | GI50 [2, 11] [nM] | GI50 [1, 12] [nM] | GI50 [2, 13] [nM] | GI50 ([1]; NCI-H1568, read-out: CTGlo-ATS GMean GI50 (nM) 72 h NCIH1568.1, 72 h, NCIH1568.1) [nM] | GI50 ([2]; Panc 05.04, read-out: CTGlo-ATS GMean GI50 (nM) 72 h PANC0504.1, 72 h, PANC0504.1) [nM] |
| --- | --- | --- | --- | --- | --- | --- | --- | --- | --- | --- | --- | --- | --- | --- | --- | --- |
| C/C(=C\c1cccc(COC(=O)N2CC[C@@H](O)C2)c1)[C@H]1OC(=O)C[C@H](O)CC[C@H](C)[C@@H](OC(=O)N2CCN(C)CC2)/C=C/[C@@H]1C [Compound 254, [(2S,3S,4E,6R,7S,10R)-10-hydroxy-2-[(E)-1-[3-[[(3R)-3-hydroxypyrrolidine-1-carbonyl]oxymethyl]phenyl]prop-1-en-2-yl]-3,7-dimethyl-12-oxo-1-oxacyclododec-4-en-6-yl] 4-methylpiperazine-1-carboxylate] | −41.424 | 23.7 | −77.065 | 29 | 5.12 | 22000 | 52.2 | 422.058 |  |  |  |  |  |  |  |  |
| CC[C@H](O)[C@@H](C)C(=O)N1CCN(c2cc(F)cc(/C=C(\C)[C@H]3OC(=O)C[C@H](O)CC[C@H](C)[C@@H](OC(=O)N4CCN(C)CC4)/C=C/[C@@H]3C)c2)CC1 [Compound 72] |  |  |  |  | 4.66 | 35.8 | 14 |  | 4.19 | −80.730 | −75.581 | 5.68 |  |  |  |  |
| C/C(=C\c1cc(F)c2cnn(C3CCOCC3)c2c1)[C@H]1OC(=O)C[C@H](O)CC[C@H](C)[C@@H](OC(=O)N2CCN(C)CC2)/C=C/[C@@H]1C [Compound 116] |  |  |  |  | 4.45 | 25 | 19.2 |  | 1.55 | −90.483 | −76.511 | 2.2 |  |  |  |  |
| C/C(=C\c1cnn(Cc2ccncc2)c1)[C@H]1OC(=O)C[C@H](O)CC[C@H](C)[C@@H](OC(=O)N2CCN(C)CC2)/C=C/[C@@H]1C [Compound 102] |  |  |  |  | 29.8 | > 25000 | 507 |  | 4900 | 31.099 | 24.371 | 3020 |  |  |  |  |
| C/C(=C\c1cc(F)cc(N2CC(F)C2)c1)[C@H]1OC(=O)C[C@H](O)CC[C@H](C)[C@@H](OC(=O)N2CCN(C)CC2)/C=C/[C@@H]1C [Compound 38] |  |  |  |  | 3.1 | 1020 | 25.2 |  | 19.6 | −54.093 | −88.672 | 14.4 |  |  |  |  |
| C/C(=C\c1cc(F)c2cnn(CC(=O)N3CCCC3)c2c1)[C@H]1OC(=O)C[C@H](O)CC[C@H](C)[C@@H](OC(=O)N2CCN(C)CC2)/C=C/[C@@H]1C [Compound 129] |  |  |  |  | 4.38 | 32 | 15.6 |  | 4.73 | −70.909 | −94.183 | 11.3 |  |  |  |  |
| C/C(=C\c1cc(F)cc(N2CCOCC2)c1)[C@H]1OC(=O)C[C@H](O)CC[C@H](C)[C@@H](OC(=O)N2CCN(CCO)CC2)/C=C/[C@@H]1C [Compound 21] |  |  |  |  | 10.3 | 1610 | 52.3 |  | 31.2 | −50.841 | −90.919 | 23.6 |  |  |  |  |
| CC[C@H](O)[C@@H](C)CN1CCN(c2cc(F)cc(/C=C(\C)[C@H]3OC(=O)C[C@H](O)CC[C@H](C)[C@@H](OC(=O)N4CCN(C)CC4)/C=C/[C@@H]3C)c2)CC1 [Compound 71] |  |  |  |  | 3.71 | 29.7 | 18.9 |  | 6.39 | −92.527 | −68.599 | 11.5 |  |  |  |  |
| C/C(=C\c1cccc(N(C)C2COC2)c1)[C@H]1OC(=O)C[C@H](O)CC[C@H](C)[C@@H](OC(=O)N2CCN(C)CC2)/C=C/[C@@H]1C [Compound 171] |  |  |  |  | 1.51 | 18800 | 42.6 |  |  | −50.083 | −92.998 |  | 19.6 | 23.6 |  |  |
| C/C(=C\c1cccc(S(=O)(=O)N2CC[C@@H](O)C2)c1)[C@H]1OC(=O)C[C@H](O)CC[C@H](C)[C@@H](OC(=O)N2CCN(C)CC2)/C=C/[C@@H]1C [Compound 199, [(2S,3S,4E,6R,7S,10R)-10-hydroxy-2-[(E)-1-[3-[(3R)-3-hydroxypyrrolidin-1-yl]sulfonylphenyl]prop-1-en-2-yl]-3,7-dimethyl-12-oxo-1-oxacyclododec-4-en-6-yl] 4-methylpiperazine-1-carboxylate] | −52.026 |  | −95.445 |  | 8.99 | 1820 | 47.2 | 38.638 |  |  |  |  |  |  | 22.9 | 33.8 |
| C/C(=C\c1cc(F)cc(N2CCN(CCO)C2=O)c1)[C@H]1OC(=O)C[C@H](O)CC[C@H](C)[C@@H](OC(=O)N2CCN(C)CC2)/C=C/[C@@H]1C [Compound 65] |  |  |  |  | 2.83 | 26.2 | 17.3 |  |  | −68.297 | −88.951 |  | 5.88 | 5.74 |  |  |
| C/C(=C\c1cc(F)c2cnn(CC(=O)N3CCOCC3)c2c1)[C@H]1OC(=O)C[C@H](O)CC[C@H](C)[C@@H](OC(=O)N2CCN(C)CC2)/C=C/[C@@H]1C [Compound 130] |  |  |  |  | 37.1 | 43.9 | 30 |  | 12 | −72.458 | −93.452 | 18.3 |  |  |  |  |
| C/C(=C\c1cc(F)cc(N(C)C2CCN(C)CC2)c1)[C@H]1OC(=O)C[C@H](O)CC[C@H](C)[C@@H](OC(=O)N2CCN(C)CC2)/C=C/[C@@H]1C [Compound 31] |  |  |  |  | 43.2 | 50.1 | 14.6 |  | 89.4 | −98.108 | −90.716 | 53 |  |  |  |  |
| C/C(=C\c1cc(F)cc(N2CCOCC2)c1)[C@H]1OC(=O)C[C@H](O)CC[C@H](C)[C@@H](OC(=O)N2CCN(C3CCCC3)CC2)/C=C/[C@@H]1C [Compound 27] |  |  |  |  | 10.5 | 39.9 | 42.3 |  | 12.3 | −71.773 | −84.822 | 11.9 |  |  |  |  |
